System: RA patients
Assay: Total cholesterol determination, Study 1 (RA patients with inadequate response to methotrexate, add-on to MTX)
Assay type: in vivo, human
Conditions: for [Total cholesterol] Median CFB / [total cholesterol] Mean CFB: Study 1 12 weeks results
Description: Double-blind, placebo-controlled add on study in subjects with moderately to severely active RA who have an inadequate response to methotrexate (MTX) (oral or parenteral).
595 subjects randomized to one of 6 dose regimens of Compound 1 (dosed as a [Compound 1:HCl:3H2O]) (3 dose levels administered either once or twice daily) or placebo on top of each subject's stable dose of MTX.
Compound 1 (dosed as a [Compound 1:HCl:3H2O]) is dosed for twelve weeks once daily (q.d.) (50 mg, 100 mg or 200 mg) or twice daily (b.i.d.) (25 mg, 50 mg or 100 mg); or placebo.
At Week 12, the subjects on placebo who have not achieved 20% improvement in swollen joint count (SJC66) and tender joint count (TJC68) are re-randomized automatically to receive Compound 1 (dosed as a [Compound 1:HCl:3H2O]) either at 100 mg q.d. or 50 mg b.i.d. doses in a blinded fashion; subjects on 50 mg q.d. who have not achieved 20% improvement in SJC66 and TJC68 will be assigned to 100 mg q.d. and subjects on 25 mg b.i.d. that have not achieved a 20% improvement in SJC66 and TJC68 will be assigned to 50 mg b.i.d. Subjects who switch treatment at week 12 are handled as if they discontinued at week 12 for the purpose of statistical analysis, whereas subjects in the other groups will maintain their randomized treatment until Week 24.
This method is based on the determination of Δ^4 cholestenone after enzymatic cleavage of the cholesterol ester by cholesterol esterase, conversion of cholesterol by cholesterol oxidase, and subsequent measurement by the Trinder reaction of the hydrogen peroxide formed (Allain et al., 1974).
Cholesterol esters are cleaved by the action of cholesterol esterase to yield free cholesterol and fatty acids. Cholesterol oxidase then catalyzes the oxidation of cholesterol to cholest-4-en-3-one and hydrogen peroxide. In the presence of peroxidase, the hydrogen peroxide formed effects the oxidative coupling of phenol and 4-aminophenazone to form a red quinone-imine dye. The color intensity of the dye formed is directly proportional to the cholesterol concentration. It is determined by measuring the increase in absorbance.
Human serum and plasma samples cholesterol determination was done on a Roche/Hitachi Cobas c 701/702 system which automatically calculate the analyte concentration of each sample.

O=C(Nc1nc2cccc(-c3ccc(CN4CCS(=O)(=O)CC4)cc3)n2n1)C1CC1 [Compound 1, cyclopropanecarboxylic acid {5-[4-(1,1-dioxo-thiomorpholin-4-ylmethyl)-phenyl]-[1,2,4]triazolo[1,5-a]pyridin-2yl}-amide]
[total cholesterol] Mean percentage CFB - 12 weeks results (50 mg q.d. (N = 82), week 1): 1%
[total cholesterol] Mean percentage CFB - 12 weeks results (50 mg q.d. (N = 82), week 2): 1%
[total cholesterol] Mean percentage CFB - 12 weeks results (50 mg q.d. (N = 82), week 4): 1%
[total cholesterol] Mean percentage CFB - 12 weeks results (50 mg q.d. (N = 82), week 8): 3%
[total cholesterol] Mean percentage CFB - 12 weeks results (50 mg q.d. (N = 82), week 12): 5%
[total cholesterol] Mean percentage CFB - 12 weeks results (100 mg q.d. (N = 85), week 1): 4%
[total cholesterol] Mean percentage CFB - 12 weeks results (100 mg q.d. (N = 85), week 2): 2%
[total cholesterol] Mean percentage CFB - 12 weeks results (100 mg q.d. (N = 85), week 4): 5%
[total cholesterol] Mean percentage CFB - 12 weeks results (100 mg q.d. (N = 85), week 8): 4%
[total cholesterol] Mean percentage CFB - 12 weeks results (100 mg q.d. (N = 85), week 12): 5%
[total cholesterol] Mean percentage CFB - 12 weeks results (200 mg q.d. (N = 86), week 1): 6%
[total cholesterol] Mean percentage CFB - 12 weeks results (200 mg q.d. (N = 86), week 2): 7%
[total cholesterol] Mean percentage CFB - 12 weeks results (200 mg q.d. (N = 86), week 4): 8%
[total cholesterol] Mean percentage CFB - 12 weeks results (200 mg q.d. (N = 86), week 8): 10%
[total cholesterol] Mean percentage CFB - 12 weeks results (200 mg q.d. (N = 86), week 12): 10%
[total cholesterol] Mean percentage CFB - 12 weeks results (2 x 25 mg b.i.d. (N = 86), week 1): 2%
[total cholesterol] Mean percentage CFB - 12 weeks results (2 x 25 mg b.i.d. (N = 86), week 2): 3%
[total cholesterol] Mean percentage CFB - 12 weeks results (2 x 25 mg b.i.d. (N = 86), week 4): 3%
[total cholesterol] Mean percentage CFB - 12 weeks results (2 x 25 mg b.i.d. (N = 86), week 8): 3%
[total cholesterol] Mean percentage CFB - 12 weeks results (2 x 25 mg b.i.d. (N = 86), week 12): 5%
[total cholesterol] Mean percentage CFB - 12 weeks results (2 x 50 mg b.i.d. (N = 85), week 1): 3%
[total cholesterol] Mean percentage CFB - 12 weeks results (2 x 50 mg b.i.d. (N = 85), week 2): 4%
[total cholesterol] Mean percentage CFB - 12 weeks results (2 x 50 mg b.i.d. (N = 85), week 4): 7%
[total cholesterol] Mean percentage CFB - 12 weeks results (2 x 50 mg b.i.d. (N = 85), week 8): 6%
[total cholesterol] Mean percentage CFB - 12 weeks results (2 x 50 mg b.i.d. (N = 85), week 12): 6%
[total cholesterol] Mean percentage CFB - 12 weeks results (2 x 100 mg b.i.d. (N = 84), week 1): 7%
[total cholesterol] Mean percentage CFB - 12 weeks results (2 x 100 mg b.i.d. (N = 84), week 2): 8%
[total cholesterol] Mean percentage CFB - 12 weeks results (2 x 100 mg b.i.d. (N = 84), week 4): 10%
[total cholesterol] Mean percentage CFB - 12 weeks results (2 x 100 mg b.i.d. (N = 84), week 8): 15%
[total cholesterol] Mean percentage CFB - 12 weeks results (2 x 100 mg b.i.d. (N = 84), week 12): 15%
[Total cholesterol] Median CFB (50 mg q.d., week 1): 0.05 mmol/L
[total cholesterol] Mean CFB (50 mg q.d., week 1): 0.0 mmol/L
[Total cholesterol] Median CFB (50 mg q.d., week 2): 0.04 mmol/L
[total cholesterol] Mean CFB (50 mg q.d., week 2): 0.1 mmol/L
[Total cholesterol] Median CFB (50 mg q.d., week 4): 0.06 mmol/L
[total cholesterol] Mean CFB (50 mg q.d., week 4): 0.1 mmol/L
[Total cholesterol] Median CFB (50 mg q.d., week 8): 0.16 mmol/L
[total cholesterol] Mean CFB (50 mg q.d., week 8): 0.1 mmol/L
[Total cholesterol] Median CFB (50 mg q.d., week 12): 0.20 mmol/L
[total cholesterol] Mean CFB (50 mg q.d., week 12): 0.2 mmol/L
[Total cholesterol] Median CFB (100 mg q.d., week 1): 0.14 mmol/L
[total cholesterol] Mean CFB (100 mg q.d., week 1): 0.2 mmol/L
[Total cholesterol] Median CFB (100 mg q.d., week 2): 0.07 mmol/L
[total cholesterol] Mean CFB (100 mg q.d., week 2): 0.1 mmol/L
[Total cholesterol] Median CFB (100 mg q.d., week 4): 0.25 mmol/L
[total cholesterol] Mean CFB (100 mg q.d., week 4): 0.2 mmol/L
[Total cholesterol] Median CFB (100 mg q.d., week 8): 0.09 mmol/L
[total cholesterol] Mean CFB (100 mg q.d., week 8): 0.1 mmol/L
[Total cholesterol] Median CFB (100 mg q.d., week 12): 0.30 mmol/L
[total cholesterol] Mean CFB (100 mg q.d., week 12): 0.2 mmol/L
[Total cholesterol] Median CFB (200 mg q.d., week 1): 0.25 mmol/L
[total cholesterol] Mean CFB (200 mg q.d., week 1): 0.3 mmol/L
[Total cholesterol] Median CFB (200 mg q.d., week 2): 0.34 mmol/L
[total cholesterol] Mean CFB (200 mg q.d., week 2): 0.3 mmol/L
[Total cholesterol] Median CFB (200 mg q.d., week 4): 0.33 mmol/L
[total cholesterol] Mean CFB (200 mg q.d., week 4): 0.4 mmol/L
[Total cholesterol] Median CFB (200 mg q.d., week 8): 0.54 mmol/L
[total cholesterol] Mean CFB (200 mg q.d., week 8): 0.4 mmol/L
[Total cholesterol] Median CFB (200 mg q.d., week 12): 0.26 mmol/L
[total cholesterol] Mean CFB (200 mg q.d., week 12): 0.5 mmol/L
[Total cholesterol] Median CFB (2 x 25 mg b.i.d., week 1): 0.12 mmol/L

— patent US10376520B2, “Methods for the treatment of cardiovascular disorders” (Galapagos NV, priority 2015, dated 2019)
